Converted amounts (≈) assume the structure as drawn.
What was measured:
[1] = tested on: C. aahli; test: organism not typed; design: Broth microdilution MIC (Sensititre plates, ARIS 2X) against soil bacterial isolates; details: soil
Description: (§1) Six Stenotrophomonas maltophilia and eight Chryseobacterium spp. antibiotic-resistant isolates were used for genomic library construction; all bacteria were isolated from farming field soil in Lithuania during the year 2016 [17, 65]. The isolates were designated as resistant if the MIC of antibiotic value matched EUCAST clinical breakpoints (v. 7.0, 2017, PK/PD (non-species related). Species were identified by matching obtained sequences with a sequence showing the highest maximum identity score from the GenBank database. If the identity of the best match was <99% and the query cover was <96%, only the genus was assigned. All environmental isolates were grown in LB medium at 28 °C. The bacteria were isolated from three farming fields in Lithuania during the year 2016 [17]. The sample collection points represented two different types of farming, i.e., organic and conventional (intensive); in all cases, the type of the soil was sandy loam. The organic farming sites were known not to use inorganic fertilizers or pesticides for a time period of over 20 years and were fertilized only with organic fertilizers (farmyard manure and slurry). Identification of bacterial isolates was based on 16S rRNA fragment sequencing as described previously. All six isolates of S. maltophilia were collected from a conventional winter wheat farming field. Antibiotic-resistant Chryseobacterium spp. isolates were recovered from various fields (conventional winter wheat, conventional rapeseed, and organic rapeseed). Two of the isolates were identified as C. aahli, and another two were identified as C. soldanellicola; for four of the isolates, only the genus could be assigned as Chryseobacterium spp. All selected isolates of S. maltophilia and Chryseobacterium spp. were resistant to at least two classes of antibiotics (β-lactams, aminoglycosides, and/or fluoroquinolones) (Table S1).

[2] = tested on: C. soldanellicola; test: organism not typed; design: Broth microdilution MIC (Sensititre plates, ARIS 2X) against soil bacterial isolates; details: soil
Description: as §1

[3] = tested on: Chryseobacterium sp.; test: microbe, parasite or virus in culture; design: Broth microdilution MIC (Sensititre plates, ARIS 2X) against soil bacterial isolates; details: Chryseobacterium
Description: as §1

[4] = tested on: S. maltophilia; test: microbe, parasite or virus in culture; design: Broth microdilution MIC (Sensititre plates, ARIS 2X) against soil bacterial isolates; details: Stenotrophomonas maltophilia
Description: as §1

[5] = tested on: T1, IND-17; test: UV-Vis spectrophotometry, initial hydrolysis rates, […] nm; format: biochemical, Chryseobacterium sp.; details: 50 mM HEPES pH 7.0, 50 µM ZnCl2, 22 °C
T1 construct: signal peptide removed; pET-28b (NcoI) in E. coli BL21 Tuner (DE3); no tag mentioned

[6] = tested on: T1, IND-17; test: as above; format: biochemical, Chryseobacterium sp.; details: 50 mM HEPES pH 7.0, 50 µM ZnCl2, 22 °C; remark: listed apart in the source
[7] = tested on: T2, CHM; test: as above; format: biochemical, Chryseobacterium sp.; details: 50 mM HEPES pH 7.0, 50 µM ZnCl2, 22 °C
T2 construct: signal peptide removed; pET-28b (NcoI) in E. coli BL21 Tuner (DE3); no tag mentioned

[8] = tested on: T1, IND-17; test: as above; format: biochemical, Chryseobacterium sp.; details: 50 mM HEPES pH 7.0, 50 µM ZnCl2, 22 °C; remark: listed apart in the source
[9] = tested on: T2, CHM; test: as above; format: biochemical, Chryseobacterium sp.; details: 50 mM HEPES pH 7.0, 50 µM ZnCl2, 22 °C; remark: listed apart in the source
[10] = tested on: T2, CHM; test: as above; format: biochemical, Chryseobacterium sp.; details: 50 mM HEPES pH 7.0, 50 µM ZnCl2, 22 °C; remark: listed apart in the source
[11] = tested on: T1, IND-17; test: as above; format: biochemical, Chryseobacterium sp.; details: 50 mM HEPES pH 7.0, 50 µM ZnCl2, 22 °C; remark: listed apart in the source
[12] = tested on: T1, IND-17; test: as above; format: biochemical, Chryseobacterium sp.; details: 50 mM HEPES pH 7.0, 50 µM ZnCl2, 22 °C; remark: listed apart in the source
[13] = tested on: T2, CHM; test: as above; format: biochemical, Chryseobacterium sp.; details: 50 mM HEPES pH 7.0, 50 µM ZnCl2, 22 °C; remark: listed apart in the source

Row | Structure (SMILES) | MIC ([1]; Isolate No.=3-7-14) | MIC ([1]; Isolate No.=3-12-27) | MIC ([2]; Isolate No.=3-7-16) | MIC ([2]; Isolate No.=4-6-16) | MIC ([3]; Isolate No.=2-2-6) | MIC ([4]; Isolate No.=2-1-3) | MIC ([4]; Isolate No.=2-4-11) | MIC ([4]; Isolate No.=2-12-28) | MIC ([3]; Isolate No.=2-4-10) | further results
1 | NCC[C@H](O)C(=O)N[C@@H]1C[C@H](N)[C@@H](O[C@H]2O[C@H](CN)[C@@H](O)[C@H](O)[C@H]2O)[C@H](O)[C@H]1O[C@H]1O[C@H](CO)[C@@H](O)[C@H](N)[C@H]1O [Amikacin] | 32 µg/mL (≈ 54.6 µM) | ≤ 8 µg/mL | 32 µg/mL (≈ 54.6 µM) | ≤ 8 µg/mL | ≤ 8 µg/mL | ≤ 8 µg/mL | 16 µg/mL (≈ 27.3 µM) |  |  | MIC ([3]; Isolate No.=2-6-15): 32 µg/mL (≈ 54.6 µM); MIC ([4]; Isolate No.=2-8-21): 32 µg/mL (≈ 54.6 µM)
2 | CC1(C)S[C@@H]2[C@H](NC(=O)[C@H](N)c3ccccc3)C(=O)N2[C@H]1C(=O)O [Ampicillin] |  |  |  |  |  |  |  |  |  | Km [5]: 470 ± 108 µM
3 | C[C@H]1[C@H](NC(=O)/C(=N\OC(C)(C)C(=O)O)c2csc(N)n2)C(=O)N1S(=O)(=O)O [Aztreonam] | 32 µg/mL (≈ 73.5 µM) |  | 32 µg/mL (≈ 73.5 µM) | > 32 µg/mL | > 32 µg/mL | 16 µg/mL (≈ 36.7 µM) | ≤ 8 µg/mL | 32 µg/mL (≈ 73.5 µM) |  | 
4 | Cc1nnc(SCC2=C(C(=O)O)N3C(=O)[C@@H](NC(=O)Cn4cnnn4)[C@H]3SC2)s1 [Cefazolin] | 32 µg/mL (≈ 70.4 µM) |  | 32 µg/mL (≈ 70.4 µM) | > 32 µg/mL | > 32 µg/mL | 32 µg/mL (≈ 70.4 µM) | > 32 µg/mL |  |  | Km [6]: 38 ± 12 µM; Km [7]: 167 ± 27 µM
5 | CO/N=C(\C(=O)N[C@@H]1C(=O)N2C(C(=O)[O-])=C(C[N+]3(C)CCCC3)CS[C@H]12)c1csc(N)n1 [Cefepime] | 8 µg/mL (≈ 16.6 µM) | ≤ 4 µg/mL | ≤ 4 µg/mL |  | ≤ 4 µg/mL | ≤ 4 µg/mL |  | > 32 µg/mL |  | MIC ([4]; Isolate No.=2-12-31): 16 µg/mL (≈ 33.3 µM)
6 | CO[C@@]1(NC(=O)C2SC(=C(C(N)=O)C(=O)O)S2)C(=O)N2C(C(=O)O)=C(CSc3nnnn3C)CS[C@@H]21 (some centres unmarked) [Cefotetan Na] | 32 µg/mL (≈ 55.6 µM) |  | 32 µg/mL (≈ 55.6 µM) | > 32 µg/mL | > 32 µg/mL | 4 µg/mL (≈ 6.95 µM) | ≤ 8 µg/mL |  |  | 
7 | CO[C@@]1(NC(=O)Cc2cccs2)C(=O)N2C(C(=O)O)=C(COC(N)=O)CS[C@@H]21 [Cefoxitin] | 32 µg/mL (≈ 74.9 µM) |  | 8 µg/mL (≈ 18.7 µM) | 16 µg/mL (≈ 37.4 µM) | > 32 µg/mL | 32 µg/mL (≈ 74.9 µM) |  | > 32 µg/mL | 32 µg/mL (≈ 74.9 µM) | MIC ([3]; Isolate No.=2-6-15): 16 µg/mL (≈ 37.4 µM)
8 | COCC1=C(C(=O)O)N2C(=O)[C@@H](NC(=O)/C(=N\OC)c3csc(N)n3)[C@H]2SC1 [Cefpodoxime] | 16 µg/mL (≈ 37.4 µM) |  | 4 µg/mL (≈ 9.36 µM) | 8 µg/mL (≈ 18.7 µM) | > 16 µg/mL | 16 µg/mL (≈ 37.4 µM) | > 16 µg/mL |  |  | 
9 | CC(C)(O/N=C(\C(=O)N[C@@H]1C(=O)N2C(C(=O)[O-])=C(C[n+]3ccccc3)CS[C@H]12)c1csc(N)n1)C(=O)O [Ceftazidime] | 8 µg/mL (≈ 14.6 µM) | 4 µg/mL (≈ 7.32 µM) | ≤ 1 µg/mL |  | 2 µg/mL (≈ 3.66 µM) | 4 µg/mL (≈ 7.32 µM) | 2 µg/mL (≈ 3.66 µM) | 8 µg/mL (≈ 14.6 µM) | 4 µg/mL (≈ 7.32 µM) | Km [7]: 200 ± 41 µM
10 | CO/N=C(\C(=O)N[C@@H]1C(=O)N2C(C(=O)O)=C(CSc3nc(=O)c(O)nn3C)CS[C@H]12)c1csc(N)n1 [Ceftriaxone] | 64 µg/mL (≈ 115 µM) |  | 4 µg/mL (≈ 7.21 µM) | 8 µg/mL (≈ 14.4 µM) | > 64 µg/mL | 32 µg/mL (≈ 57.7 µM) |  | > 64 µg/mL | 64 µg/mL (≈ 115 µM) | 
11 | CO/N=C(\C(=O)N[C@@H]1C(=O)N2C(C(=O)O)=C(COC(N)=O)CS[C@H]12)c1ccco1 [Cefuroxime] | 32 µg/mL (≈ 75.4 µM) |  | 32 µg/mL (≈ 75.4 µM) |  | > 32 µg/mL | 32 µg/mL (≈ 75.4 µM) | > 32 µg/mL |  |  | Km [6]: 30 ± 5.8 µM; Km [7]: 76 ± 19 µM
12 | O=C(O)c1cn(C2CC2)c2cc(N3CCNCC3)c(F)cc2c1=O [Ciprofloxacin] | 2 µg/mL (≈ 6.04 µM) | ≤ 0.5 µg/mL | ≤ 0.5 µg/mL |  | ≤ 0.5 µg/mL | 1 µg/mL (≈ 3.02 µM) |  | 2 µg/mL (≈ 6.04 µM) | 1 µg/mL (≈ 3.02 µM) | MIC ([4]; Isolate No.=2-8-21): ≤ 0.5 µg/mL
13 | C[C@@H](O)[C@H]1C(=O)N2C(C(=O)O)=C(SCCN=CN)C[C@H]12 [Imipenem] | 16 µg/mL (≈ 53.4 µM) |  | 4 µg/mL (≈ 13.4 µM) |  | 8 µg/mL (≈ 26.7 µM) | 16 µg/mL (≈ 53.4 µM) | > 16 µg/mL |  | ≤ 2 µg/mL | Km [8]: 185 ± 19 µM; Km [9]: 389 ± 48 µM; MIC ([3]; Isolate No.=2-8-20): 4 µg/mL (≈ 13.4 µM)
14 | C[C@@H](O)[C@H]1C(=O)N2C(C(=O)O)=C(S[C@@H]3CN[C@H](C(=O)N(C)C)C3)[C@H](C)[C@H]12 [Meropenem] | 8 µg/mL (≈ 20.9 µM) |  | 2 µg/mL (≈ 5.22 µM) | 4 µg/mL (≈ 10.4 µM) | > 8 µg/mL | ≤ 1 µg/mL | 2 µg/mL (≈ 5.22 µM) | > 8 µg/mL |  | Km [10]: 10 ± 2 µM; Km [11]: 258 ± 25 µM
15 | O=C(Cc1cccs1)N[C@@H]1C(=O)N2C(C(=O)O)=C(/C=C/c3ccc([N+](=O)[O-])cc3[N+](=O)[O-])CS[C@H]12 [Nitrocefin] |  |  |  |  |  |  |  |  |  | Km [12]: 152 ± 4.7 µM; Km [13]: 153 ± 10 µM
16 | O=C1CN(/N=C/c2ccc([N+](=O)[O-])o2)C(=O)N1 [Nitrofurantoin] | 128 µg/mL (≈ 537 µM) | 64 µg/mL (≈ 269 µM) | 64 µg/mL (≈ 269 µM) | ≤ 16 µg/mL | 64 µg/mL (≈ 269 µM) | 128 µg/mL (≈ 537 µM) | > 128 µg/mL |  | 32 µg/mL (≈ 134 µM) | 
17 | CCN1CCN(C(=O)N[C@@H](C(=O)N[C@@H]2C(=O)N3[C@@H]2SC(C)(C)[C@@H]3C(=O)O)c2ccccc2)C(=O)C1=O [Piperacillin] | 32 µg/mL (≈ 61.8 µM) | ≤ 16 µg/mL | ≤ 16 µg/mL |  | 32 µg/mL (≈ 61.8 µM) | 64 µg/mL (≈ 124 µM) | ≤ 16 µg/mL | 32 µg/mL (≈ 61.8 µM) | ≤ 16 µg/mL | MIC ([3]; Isolate No.=2-6-15): 128 µg/mL (≈ 247 µM)
18 | NC[C@H]1O[C@H](O[C@H]2[C@H](O)[C@@H](O[C@H]3O[C@H](CO)[C@@H](O)[C@H](N)[C@H]3O)[C@H](N)C[C@@H]2N)[C@H](N)C[C@@H]1O [Tobramycin] | 8 µg/mL (≈ 17.1 µM) |  | 8 µg/mL (≈ 17.1 µM) |  | > 8 µg/mL | ≤ 4 µg/mL |  |  |  | MIC ([4]; Isolate No.=2-8-21): 8 µg/mL (≈ 17.1 µM)
